Measured values from patent US20260207623A1, “USE OF ESTETROL IN HEPATICALLY IMPAIRED PATIENTS” (ESTETRA SRL, priority 2022, published 2026).

What was measured:
Type in all cases: in vivo, human
[1] = system: triglycerides, glucose, cholesterol, HDL-cholesterol, LDL-cholesterol level; assay: Example 2 section F: lipid parameters and glucose level (triglycerides, glucose, cholesterol, HDL-cholesterol, LDL-cholesterol) at 15 mg and 20 mg daily doses
Experimental: (§1) In order to better assess the potential for increasing the daily dose beyond the minimum effective dose of 15 mg estetrol monohydrate daily, a number of parameters were followed in a study where estetrol monohydrate was administered at the increased dose of 20 mg per day.
1. Triglycerides Level (mmol/L)
2. Glucose Level (mmol/L)
3. Cholesterol Level (mmol/L)
4. HDL-Cholesterol Level (mmol/L)
5. LDL-Cholesterol Level (mmol/L)

post-menopausal women = assay: Example 2: number of patients with endometrial biopsies
Experimental: If during the course of the trial, a double layer endometrial thickness≥15 mm was detected on TVUS and/or abnormal uterine bleeding (in the judgement of the gynecologist in light of the estrogen therapy) was reported by a non-hysterectomied person, they underwent an endometrial biopsy and was treated with progestin (10 mg dydrogesterone) QD until end of Week 11 in a sequential way (i.e., a 14 day progestin treatment period followed by a 14 day progestin treatment pause) in addition to the E4/placebo treatment. […] If an abnormal uterine bleeding occurred again after a first normal endometrial biopsy, a thorough gynaecological examination and a TVUS were performed. If necessary in the judgment of the gynecologist, a second endometrial biopsy was performed.
1. Number of Patients with Biopsies

[2] = system: C-Terminal Telopeptide (CTX-1); assay: Example 2 section F: C-terminal telopeptide (CTX-1), marker of bone resorption, at 15 mg and 20 mg daily doses
Experimental: as §1
6. C-Terminal Telopeptide (CTX-1) (Ng/L)
CTX-1 is a specific marker of bone resorption.

**Q.** With `C[C@]12CC[C@@H]3c4ccc(O)cc4CC[C@H]3[C@@H]1[C@@H](O)[C@@H](O)[C@@H]2O` [E4 monohydrate, estetrol monohydrate] as the molecule, how does the “Cholesterol level, Baseline, Mean” value ([1]; 15 mg daily) read?
**A.** 5.51 mmol/L

**Q.** What about the “Cholesterol level, Baseline, Median” value ([1]; 15 mg daily) of the same molecule?
**A.** 5.62 mmol/L

**Q.** And the “Glucose level, Baseline, Mean” value ([1]; 15 mg daily)?
**A.** 4.77 mmol/L

**Q.** What about the “Glucose level, Baseline, Median” value ([1]; 15 mg daily) of the same molecule?
**A.** 4.72 mmol/L

**Q.** What about the “HDL-Cholesterol level, Baseline, Mean” value ([1]; 15 mg daily) of the same molecule?
**A.** 1.73 mmol/L

**Q.** What about the “HDL-Cholesterol level, Baseline, Median” value ([1]; 15 mg daily) of the same molecule?
**A.** 1.66 mmol/L

**Q.** What about the “LDL-Cholesterol level, Baseline, Mean” value ([1]; 15 mg daily) of the same molecule?
**A.** 3.05 mmol/L

**Q.** What about the “LDL-Cholesterol level, Baseline, Median” value ([1]; 15 mg daily) of the same molecule?
**A.** 3.22 mmol/L

**Q.** What about the “Triglycerides level, Baseline, Mean” value ([1]; 15 mg daily) of the same molecule?
**A.** 1.32 mmol/L

**Q.** And the “Triglycerides level, Baseline, Median” value ([1]; 15 mg daily)?
**A.** 1.21 mmol/L

**Q.** What about the “Cholesterol level, End Of Treatment Actual Change from Baseline, Mean” value ([1]; 15 mg daily, after 12 weeks) of the same molecule?
**A.** 0.12 mmol/L

**Q.** And the “Cholesterol level, End Of Treatment Actual Change from Baseline, Median” value ([1]; 15 mg daily, after 12 weeks)?
**A.** 0.08 mmol/L

**Q.** What about the “Cholesterol level, End Of Treatment Actual Value, Mean” value ([1]; 15 mg daily, after 12 weeks) of the same molecule?
**A.** 5.63 mmol/L

**Q.** And the “Cholesterol level, End Of Treatment Actual Value, Median” value ([1]; 15 mg daily, after 12 weeks)?
**A.** 5.71 mmol/L

**Q.** And the “Glucose level, End Of Treatment Actual Change from Baseline, Mean” value ([1]; 15 mg daily, after 12 weeks)?
**A.** 0.02 mmol/L

**Q.** What about the “Glucose level, End Of Treatment Actual Change from Baseline, Median” value ([1]; 15 mg daily, after 12 weeks) of the same molecule?
**A.** 0.05 mmol/L

**Q.** And the “Glucose level, End Of Treatment Actual Value, Mean” value ([1]; 15 mg daily, after 12 weeks)?
**A.** 4.79 mmol/L

**Q.** What about the “Glucose level, End Of Treatment Actual Value, Median” value ([1]; 15 mg daily, after 12 weeks) of the same molecule?
**A.** 4.77 mmol/L

**Q.** And the “HDL-Cholesterol level, End Of Treatment Actual Change from Baseline, Mean” value ([1]; 15 mg daily, after 12 weeks)?
**A.** 0.16 mmol/L

**Q.** And the “HDL-Cholesterol level, End Of Treatment Actual Change from Baseline, Median” value ([1]; 15 mg daily, after 12 weeks)?
**A.** 0.17 mmol/L

**Q.** And the “HDL-Cholesterol level, End Of Treatment Actual Value, Mean” value ([1]; 15 mg daily, after 12 weeks)?
**A.** 1.89 mmol/L

**Q.** What about the “HDL-Cholesterol level, End Of Treatment Actual Value, Median” value ([1]; 15 mg daily, after 12 weeks) of the same molecule?
**A.** 1.81 mmol/L

**Q.** And the “LDL-Cholesterol level, End Of Treatment Actual Change from Baseline, Mean” value ([1]; 15 mg daily, after 12 weeks)?
**A.** 0.09 mmol/L

**Q.** And the “LDL-Cholesterol level, End Of Treatment Actual Change from Baseline, Median” value ([1]; 15 mg daily, after 12 weeks)?
**A.** 0.10 mmol/L

**Q.** And the “LDL-Cholesterol level, End Of Treatment Actual Value, Mean” value ([1]; 15 mg daily, after 12 weeks)?
**A.** 3.14 mmol/L

**Q.** And the “LDL-Cholesterol level, End Of Treatment Actual Value, Median” value ([1]; 15 mg daily, after 12 weeks)?
**A.** 3.25 mmol/L

**Q.** What about the “Triglycerides level, End Of Treatment Actual Change from Baseline, Mean” value ([1]; 15 mg daily, after 12 weeks) of the same molecule?
**A.** 0.20 mmol/L

**Q.** What about the “Triglycerides level, End Of Treatment Actual Change from Baseline, Median” value ([1]; 15 mg daily, after 12 weeks) of the same molecule?
**A.** 0.15 mmol/L

**Q.** What about the “Triglycerides level, End Of Treatment Actual Value, Mean” value ([1]; 15 mg daily, after 12 weeks) of the same molecule?
**A.** 1.61 mmol/L

**Q.** And the “Triglycerides level, End Of Treatment Actual Value, Median” value ([1]; 15 mg daily, after 12 weeks)?
**A.** 1.40 mmol/L

**Q.** What about the “Cholesterol level, Baseline, Mean” value ([1]; 20 mg daily) of the same molecule?
**A.** 6.27 mmol/L

**Q.** What about the “Cholesterol level, Baseline, Median” value ([1]; 20 mg daily) of the same molecule?
**A.** 6.25 mmol/L

**Q.** And the “Glucose level, Baseline, Mean” value ([1]; 20 mg daily)?
**A.** 5.53 mmol/L

**Q.** And the “Glucose level, Baseline, Median” value ([1]; 20 mg daily)?
**A.** 5.60 mmol/L

**Q.** And the “HDL-Cholesterol level, Baseline, Mean” value ([1]; 20 mg daily)?
**A.** 1.68 mmol/L

**Q.** What about the “HDL-Cholesterol level, Baseline, Median” value ([1]; 20 mg daily) of the same molecule?
**A.** 1.60 mmol/L

**Q.** What about the “LDL-Cholesterol level, Baseline, Mean” value ([1]; 20 mg daily) of the same molecule?
**A.** 3.94 mmol/L

**Q.** And the “LDL-Cholesterol level, Baseline, Median” value ([1]; 20 mg daily)?
**A.** 4.00 mmol/L

**Q.** And the “Triglycerides level, Baseline, Mean” value ([1]; 20 mg daily)?
**A.** 1.43 mmol/L

**Q.** What about the “Triglycerides level, Baseline, Median” value ([1]; 20 mg daily) of the same molecule?
**A.** 1.40 mmol/L

**Q.** What about the “lipid parameters and glucose level” value ([1]; 20 mg daily dose in place of 15 mg daily dose) of the same molecule?
**A.** do not behave significantly differently

**Q.** What about the “Cholesterol level, End Of Treatment Actual Change from Baseline, Mean” value ([1]; 20 mg daily, after 28 days) of the same molecule?
**A.** -0.18 mmol/L

**Q.** And the “Cholesterol level, End Of Treatment Actual Change from Baseline, Median” value ([1]; 20 mg daily, after 28 days)?
**A.** -0.20 mmol/L

**Q.** And the “Cholesterol level, End Of Treatment Actual Value, Mean” value ([1]; 20 mg daily, after 28 days)?
**A.** 6.09 mmol/L

**Q.** And the “Cholesterol level, End Of Treatment Actual Value, Median” value ([1]; 20 mg daily, after 28 days)?
**A.** 6.10 mmol/L

**Q.** What about the “Glucose level, End Of Treatment Actual Change from Baseline, Mean” value ([1]; 20 mg daily, after 28 days) of the same molecule?
**A.** -0.10 mmol/L

**Q.** And the “Glucose level, End Of Treatment Actual Change from Baseline, Median” value ([1]; 20 mg daily, after 28 days)?
**A.** -0.15 mmol/L

**Q.** What about the “Glucose level, End Of Treatment Actual Value, Mean” value ([1]; 20 mg daily, after 28 days) of the same molecule?
**A.** 5.44 mmol/L

**Q.** What about the “Glucose level, End Of Treatment Actual Value, Median” value ([1]; 20 mg daily, after 28 days) of the same molecule?
**A.** 5.60 mmol/L

**Q.** What about the “HDL-Cholesterol level, End Of Treatment Actual Change from Baseline, Mean” value ([1]; 20 mg daily, after 28 days) of the same molecule?
**A.** 0.29 mmol/L

**Q.** What about the “HDL-Cholesterol level, End Of Treatment Actual Change from Baseline, Median” value ([1]; 20 mg daily, after 28 days) of the same molecule?
**A.** 0.35 mmol/L

**Q.** And the “HDL-Cholesterol level, End Of Treatment Actual Value, Mean” value ([1]; 20 mg daily, after 28 days)?
**A.** 1.97 mmol/L

**Q.** What about the “HDL-Cholesterol level, End Of Treatment Actual Value, Median” value ([1]; 20 mg daily, after 28 days) of the same molecule?
**A.** 1.90 mmol/L

**Q.** What about the “LDL-Cholesterol level, End Of Treatment Actual Change from Baseline, Mean” value ([1]; 20 mg daily, after 28 days) of the same molecule?
**A.** -0.51 mmol/L

**Q.** What about the “LDL-Cholesterol level, End Of Treatment Actual Change from Baseline, Median” value ([1]; 20 mg daily, after 28 days) of the same molecule?
**A.** -0.65 mmol/L

**Q.** What about the “LDL-Cholesterol level, End Of Treatment Actual Value, Mean” value ([1]; 20 mg daily, after 28 days) of the same molecule?
**A.** 3.43 mmol/L

**Q.** What about the “LDL-Cholesterol level, End Of Treatment Actual Value, Median” value ([1]; 20 mg daily, after 28 days) of the same molecule?
**A.** 3.45 mmol/L

**Q.** And the “Triglycerides level, End Of Treatment Actual Change from Baseline, Mean” value ([1]; 20 mg daily, after 28 days)?
**A.** 0.10 mmol/L

**Q.** What about the “Triglycerides level, End Of Treatment Actual Change from Baseline, Median” value ([1]; 20 mg daily, after 28 days) of the same molecule?
**A.** 0.10 mmol/L

**Q.** And the “Triglycerides level, End Of Treatment Actual Value, Mean” value ([1]; 20 mg daily, after 28 days)?
**A.** 1.53 mmol/L

**Q.** And the “Triglycerides level, End Of Treatment Actual Value, Median” value ([1]; 20 mg daily, after 28 days)?
**A.** 1.40 mmol/L

**Q.** What about the “Number of patients with biopsies” value (post-menopausal women; 2.5 mg daily) of the same molecule?
**A.** 4

**Q.** What about the “Number of patients with biopsies” value (post-menopausal women; 5 mg daily) of the same molecule?
**A.** 5

**Q.** What about the “Number of patients with biopsies” value (post-menopausal women; 10 mg daily) of the same molecule?
**A.** 11

**Q.** And the “Number of patients with biopsies” value (post-menopausal women; 15 mg daily)?
**A.** 9

**Q.** What about the requirements for biopsies (post-menopausal women; 15 mg per day group compared with 10 mg per day group) of the same molecule?
**A.** less requirements for biopsies

**Q.** And the “bone resorption (CTX-1)” value ([2]; 15 mg daily dose)?
**A.** small decrease of bone resorption

**Q.** And the “bone resorption (CTX-1)” value ([2]; 20 mg daily dose, after 28 days of treatment, compared with 15 mg)?
**A.** more pronounced
